Test results as given in patent US20230277534A1 (Plexxikon Inc., priority 2011, published 2023).

How the values were obtained:
B-Raf V600E = B-Raf V600E (Homo sapiens (Human), UniProt P15056, V600E); experiment: B-Raf V600E kinase biochemical activity assay (AlphaScreen, biotin-MEK1 substrate); conditions: 100 μM ATP
Method in brief: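 IC50 was derived from AlphaScreen signal (anti-phospho-MEK1/2 antibody with streptavidin donor and Protein A acceptor beads, 3 h) across 8 compound concentrations. The kinase step ran 45 min at room temperature: 0.1 ng B-Raf V600E, 100 nM biotin-MEK1, 100 μM final ATP, pH 7.0 HEPES with MgCl2/MnCl2.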

[1] = test system: COLO205 colon adenocarcinoma cells (B-Raf V600E mutation); experiment: COLO205 cell growth inhibition (ATPlite); format: cell-based; conditions: Homo sapiens, COLO 205, 72 h, 3 days
Description: Compounds are assessed in a variety of cell based assays.
On day 1, cells are counted, then centrifuged in a conical tube for 5 minutes at 1000 rpm.
On day 2, compound at a maximum concentration of 5 mM is serially diluted 1:3 (e.g. 10 μL with 30 μL dimethyl sulfoxide) for a total of 8 point titration with DMSO as a control. A 1 μL aliquot of each dilution point and control is added to 249 μL growth media and 50 μL is added to a well containing cells, providing 10 μM compound at the maximum concentration point. The cells are incubated for 3 days at 37° C. in 5% CO2.
ATPlite is added 25 μL to each well, shake for 2 minutes, and the cells are incubated at room temperature for 10 minutes, then luminescence is read on Safire reader. The measured luminescence correlates directly with cell number, such that the reading as a function of compound concentration is used to determine the IC50 value.

Chain of B-Raf V600E (P15056 whole entry V600E): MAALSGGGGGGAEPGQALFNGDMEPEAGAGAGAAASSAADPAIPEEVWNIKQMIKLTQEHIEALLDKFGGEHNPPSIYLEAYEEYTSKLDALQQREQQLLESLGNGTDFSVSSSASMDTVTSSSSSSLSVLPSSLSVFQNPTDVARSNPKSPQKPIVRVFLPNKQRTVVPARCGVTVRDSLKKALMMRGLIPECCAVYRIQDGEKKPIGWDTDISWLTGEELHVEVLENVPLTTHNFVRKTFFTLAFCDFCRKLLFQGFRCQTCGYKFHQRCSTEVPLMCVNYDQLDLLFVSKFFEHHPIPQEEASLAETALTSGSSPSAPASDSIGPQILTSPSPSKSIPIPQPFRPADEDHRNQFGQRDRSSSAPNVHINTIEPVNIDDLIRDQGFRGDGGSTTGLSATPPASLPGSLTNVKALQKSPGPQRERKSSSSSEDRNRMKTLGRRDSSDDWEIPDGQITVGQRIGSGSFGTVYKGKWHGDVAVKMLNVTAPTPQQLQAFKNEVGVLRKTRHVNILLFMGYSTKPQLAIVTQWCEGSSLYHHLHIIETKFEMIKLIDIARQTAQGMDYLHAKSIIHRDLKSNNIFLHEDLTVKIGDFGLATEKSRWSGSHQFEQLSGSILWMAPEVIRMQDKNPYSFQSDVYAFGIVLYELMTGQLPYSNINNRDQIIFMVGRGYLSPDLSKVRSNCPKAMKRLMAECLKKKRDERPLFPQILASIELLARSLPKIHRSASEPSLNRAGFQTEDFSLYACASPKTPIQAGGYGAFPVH

SMILES	IC50 (B-Raf V600E)	IC50 [1]
CCN(C)S(=O)(=O)Nc1cccc(C(=O)c2c[nH]c3ncc(-c4ccc(C#N)nc4)cc23)c1F [Compound P-0102, 5-(6-cyano-3-pyridyl)-3-[3-[[ethyl(methyl)sulfamoyl]amino]-2-fluoro-benzoyl]-1H-pyrrolo[2,3-b]pyridine]	< 0.1 µM	> 1 µM
CCN(C)S(=O)(=O)Nc1cccc(C(=O)c2c[nH]c3ncc(-c4ccc(C(C)(C)O)cc4)cc23)c1F [Compound P-0104, 3-[3-[[ethyl(methyl)sulfamoyl]amino]-2-fluoro-benzoyl]-5-[4-(1-hydroxy-1-methyl-ethyl)phenyl]-1H-pyrrolo[2,3-b]pyridine]	< 0.1 µM	< 1 µM
CN(C)c1ncc(-c2cnc3[nH]cc(C(=O)c4cccc(NS(=O)(=O)N(C)C)c4F)c3c2)cn1 [Compound P-0106, 5-[2-(dimethylamino)pyrimidin-5-yl]-3-[3-(dimethylsulfamoylamino)-2-fluoro-benzoyl]-1H-pyrrolo[2,3-b]pyridine]	< 0.1 µM	< 1 µM
CN(C)S(=O)(=O)Nc1cccc(C(=O)c2c[nH]c3ncc(-c4cnc(N5CCCC5)nc4)cc23)c1F [Compound P-0107, 3-[3-(dimethylsulfamoylamino)-2-fluoro-benzoyl]-5-(2-pyrrolidin-1-ylpyrimidin-5-yl)-1H-pyrrolo[2,3-b]pyridine]	< 0.1 µM	< 1 µM
O=C(c1cccc(NS(=O)(=O)N2CCCC2)c1F)c1c[nH]c2ncc(-c3cnc(N4CCCC4)nc3)cc12 [Compound P-0109, N-[2-fluoro-3-[5-(2-pyrrolidin-1-ylpyrimidin-5-yl)-1H-pyrrolo[2,3-b]pyridine-3-carbonyl]phenyl]pyrrolidine-1-sulfonamide]	< 0.1 µM	< 1 µM
CN(C)S(=O)(=O)Nc1cccc(C(=O)c2c[nH]c3ncc(I)cc23)c1F [Compound P-0110, 3-[3-(dimethylsulfamoylamino)-2-fluoro-benzoyl]-5-iodo-1H-pyrrolo[2,3-b]pyridine]	< 0.1 µM	< 1 µM
CCCN(C)S(=O)(=O)Nc1cccc(C(=O)c2c[nH]c3ncc(-c4cnc(C)nc4)cc23)c1F [Compound P-0111, 3-[2-fluoro-3-[[methyl(propyl)sulfamoyl]amino]benzoyl]-5-(2-methylpyrimidin-5-yl)-1H-pyrrolo[2,3-b]pyridine]	< 0.1 µM	< 1 µM
Cc1ncc(-c2cnc3[nH]cc(C(=O)c4cccc(NS(=O)(=O)N(C)CC5CC5)c4F)c3c2)cn1 [Compound P-0112, 3-[3-[[cyclopropylmethyl(methyl)sulfamoyl]amino]-2-fluoro-benzoyl]-5-(2-methylpyrimidin-5-yl)-1H-pyrrolo[2,3-b]pyridine]	< 0.1 µM	< 1 µM
CN(C)S(=O)(=O)Nc1cccc(C(=O)c2c[nH]c3ncc(-c4ccc(C5CC5)nc4)cc23)c1F [Compound P-0113, 5-(6-cyclopropyl-3-pyridyl)-3-[3-(dimethylsulfamoylamino)-2-fluoro-benzoyl]-1H-pyrrolo[2,3-b]pyridine]	< 0.1 µM	< 1 µM
CCCN(C)S(=O)(=O)Nc1cccc(C(=O)c2c[nH]c3ncc(-c4ccc(C5CC5)nc4)cc23)c1F [Compound P-0114, 5-(6-cyclopropyl-3-pyridyl)-3-[2-fluoro-3-[[methyl(propyl)sulfamoyl]amino]benzoyl]-1H-pyrrolo[2,3-b]pyridine]	< 0.1 µM	< 1 µM
CN(CC1CC1)S(=O)(=O)Nc1cccc(C(=O)c2c[nH]c3ncc(-c4ccc(C5CC5)nc4)cc23)c1F [Compound P-0115, 3-[3-[[cyclopropylmethyl(methyl)sulfamoyl]amino]-2-fluoro-benzoyl]-5-(6-cyclopropyl-3-pyridyl)-1H-pyrrolo[2,3-b]pyridine]	< 0.1 µM	< 1 µM
CCCN(C)S(=O)(=O)Nc1ccc(F)c(C(=O)c2c[nH]c3ncc(-c4cnc(OC)nc4)cc23)c1F [Compound P-0116, 3-[2,6-difluoro-3-[[methyl(propyl)sulfamoyl]amino]benzoyl]-5-(2-methoxypyrimidin-5-yl)-1H-pyrrolo[2,3-b]pyridine]	< 0.1 µM	< 1 µM
CCCNS(=O)(=O)Nc1cccc(C(=O)c2c[nH]c3ncc(I)cc23)c1F [Compound P-0117, [2-fluoro-3-(propylsulfamoylamino)phenyl]-(5-iodo-1H-pyrrolo[2,3-b]pyridin-3-yl)methanone]	> 0.1 µM	> 1 µM
CCC(C)S(=O)(=O)Nc1cccc(C(=O)c2c[nH]c3ncc(-c4cnc(OC)nc4)cc23)c1F (stereo not drawn) [Compound P-0224, N-[2-fluoro-3-[5-(2-methoxypyrimidin-5-yl)-1H-pyrrolo[2,3-b]pyridine-3-carbonyl]phenyl]butane-2-sulfonamide]	< 0.1 µM	< 1 µM
CCC(C)S(=O)(=O)Nc1cccc(C(=O)c2c[nH]c3ncc(-c4cnc(N5CCCC5)nc4)cc23)c1F (stereo not drawn) [Compound P-0225, N-[2-fluoro-3-[5-(2-pyrrolidin-1-ylpyrimidin-5-yl)-1H-pyrrolo[2,3-b]pyridine-3-carbonyl]phenyl]butane-2-sulfonamide]	< 0.1 µM	< 1 µM
CCC(C)S(=O)(=O)Nc1cccc(C(=O)c2c[nH]c3ncc(-c4cnc(NC5CC5)nc4)cc23)c1F (stereo not drawn) [Compound P-0226, N-[3-[5-[2-(cyclopropylamino)pyrimidin-5-yl]-1H-pyrrolo[2,3-b]pyridine-3-carbonyl]-2-fluoro-phenyl]butane-2-sulfonamide]	< 0.1 µM	< 1 µM
CCC(C)S(=O)(=O)Nc1cccc(C(=O)c2c[nH]c3ncc(-c4ccc(C5(C#N)CC5)cc4)cc23)c1F (stereo not drawn) [Compound P-0227, N-[3-[5-[4-(1-cyanocyclopropyl)phenyl]-1H-pyrrolo[2,3-b]pyridine-3-carbonyl]-2-fluoro-phenyl]butane-2-sulfonamide]	< 0.1 µM	< 1 µM
CCC(C)S(=O)(=O)Nc1cccc(C(=O)c2c[nH]c3ncc(-c4cnc(C(C)C)nc4)cc23)c1F (stereo not drawn) [Compound P-0229, N-[2-fluoro-3-[5-(2-isopropylpyrimidin-5-yl)-1H-pyrrolo[2,3-b]pyridine-3-carbonyl]phenyl]butane-2-sulfonamide]	< 0.1 µM	< 1 µM
CCC(C)S(=O)(=O)Nc1cccc(C(=O)c2c[nH]c3ncc(-c4ccc(N(C)C)nc4)cc23)c1F (stereo not drawn) [Compound P-0230, N-[3-[5-[6-(dimethylamino)-3-pyridyl]-1H-pyrrolo[2,3-b]pyridine-3-carbonyl]-2-fluoro-phenyl]butane-2-sulfonamide]	< 0.1 µM	< 1 µM
CCC(C)S(=O)(=O)Nc1cccc(C(=O)c2c[nH]c3ncc(-c4cnc(C)nc4)cc23)c1F (stereo not drawn) [Compound P-0231, N-[2-fluoro-3-[5-(2-methylpyrimidin-5-yl)-1H-pyrrolo[2,3-b]pyridine-3-carbonyl]phenyl]butane-2-sulfonamide]	< 0.1 µM	< 1 µM
O=C(c1cccc(NS(=O)(=O)N2CCCC2)c1F)c1c[nH]c2ncc(-c3cnc(N4CCOCC4)nc3)cc12 [Compound P-0235, N-[2-fluoro-3-[5-(2-morpholinopyrimidin-5-yl)-1H-pyrrolo[2,3-b]pyridine-3-carbonyl]phenyl]pyrrolidine-1-sulfonamide]	< 0.1 µM	< 1 µM
CCC(C)S(=O)(=O)Nc1cccc(C(=O)c2c[nH]c3ncc(-c4cnc(N5CCOCC5)nc4)cc23)c1F (stereo not drawn) [Compound P-0236, N-[2-fluoro-3-[5-(2-morpholinopyrimidin-5-yl)-1H-pyrrolo[2,3-b]pyridine-3-carbonyl]phenyl]butane-2-sulfonamide]	< 0.1 µM	< 1 µM
CN(C)S(=O)(=O)Nc1ccc(F)c(C(=O)c2c[nH]c3ncc(-c4cnc(C5CC5)nc4)cc23)c1F [Compound P-0238, 5-(2-cyclopropylpyrimidin-5-yl)-3-[3-(dimethylsulfamoylamino)-2,6-difluoro-benzoyl]-1H-pyrrolo[2,3-b]pyridine]	< 0.1 µM	< 1 µM
CCN(C)S(=O)(=O)Nc1ccc(F)c(C(=O)c2c[nH]c3ncc(-c4cnc(C5CC5)nc4)cc23)c1F [Compound P-0240, 5-(2-cyclopropylpyrimidin-5-yl)-3-[3-[[ethyl(methyl)sulfamoyl]amino]-2,6-difluoro-benzoyl]-1H-pyrrolo[2,3-b]pyridine]	< 0.1 µM	< 1 µM
O=C(c1c(F)ccc(NS(=O)(=O)N2CCCC2)c1F)c1c[nH]c2ncc(-c3cnc(C4CC4)nc3)cc12 [Compound P-0241, N-[3-[5-(2-cyclopropylpyrimidin-5-yl)-1H-pyrrolo[2,3-b]pyridine-3-carbonyl]-2,4-difluoro-phenyl]pyrrolidine-1-sulfonamide]	< 0.1 µM	< 1 µM
CCCNS(=O)(=O)Nc1cccc(C(=O)c2c[nH]c3ncc(-c4cnn(C)c4)cc23)c1F [Compound P-0242, [2-fluoro-3-(propylsulfamoylamino)phenyl]-[5-(1-methylpyrazol-4-yl)-1H-pyrrolo[2,3-b]pyridin-3-yl]methanone]	< 0.1 µM	> 1 µM
O=C(c1cccc(NS(=O)(=O)N2CCCC2)c1F)c1c[nH]c2ncc(-c3ccc(C4(C(=O)O)CC4)cc3)cc12 [Compound P-0243, 1-[4-[3-[2-fluoro-3-(pyrrolidin-1-ylsulfonylamino)benzoyl]-1H-pyrrolo[2,3-b]pyridin-5-yl]phenyl]cyclopropanecarboxylic acid]	< 0.1 µM	> 1 µM
